Where two headings read alike, the source gives them in different places.

Series [1] addresses T1, porcine pancreatic α-amylase (Sus scrofa, UniProt P00690).
T1 construct: purchased SRL (Sisco Research Laboratories)
T1 sequence (P00690 16-511): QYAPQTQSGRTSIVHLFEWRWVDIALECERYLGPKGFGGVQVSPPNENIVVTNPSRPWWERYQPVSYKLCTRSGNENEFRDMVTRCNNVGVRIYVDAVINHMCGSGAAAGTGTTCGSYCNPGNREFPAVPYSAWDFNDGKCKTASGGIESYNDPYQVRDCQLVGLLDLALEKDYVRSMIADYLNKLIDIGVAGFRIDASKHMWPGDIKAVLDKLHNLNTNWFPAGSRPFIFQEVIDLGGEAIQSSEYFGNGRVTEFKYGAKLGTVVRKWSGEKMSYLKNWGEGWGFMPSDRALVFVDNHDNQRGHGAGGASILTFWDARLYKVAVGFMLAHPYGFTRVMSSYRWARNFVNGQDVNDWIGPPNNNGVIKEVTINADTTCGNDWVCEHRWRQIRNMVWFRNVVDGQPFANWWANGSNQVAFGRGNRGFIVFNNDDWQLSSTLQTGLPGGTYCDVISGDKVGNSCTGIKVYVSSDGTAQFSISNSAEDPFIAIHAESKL
In words: α-amylase inhibition assay. In kind it is biochemical. The method, then:
The enzymatic reaction was initiated by adding the starch substrate and allowed to proceed for 15 min. The reaction was then terminated by adding the 3,5-dinitrosalicylic acid (DNSA) reagent, and the mixture was heated to boiling for 5 min. […] IC50 values were obtained from plots of percentage inhibition versus sample concentration.

Series [2] is described as follows: ABTS radical scavenging assay. The procedure:
Concerning the ABTS assay, the ABTS^•+ radical cation was generated. Subsequently, 0.05 mL of the test samples (peptides 1 and 2) at various concentrations was mixed with 4.00 mL of ABTS^•+ solution and kept in the dark at room temperature for two h. The absorbance was determined at 734 nm using a UV–Vis Spectrophotometer (UV-1280 Shimadzu, Germany). Ascorbic acid was used as the positive control, and samples without the ABTS radical solution served as blanks. The results were expressed as the effective concentration (EC50) values.

The subject of another series is human erythrocytes. In words: hemolytic assay. In kind it is cell-based. The method, then:
The hemolytic potential of the lead peptides was determined following an established erythrocyte hemolysis protocol. In brief, 15 mL of venous blood was drawn from a healthy individual, centrifuged at 3000 rpm for 10 min, and the plasma was discarded. The residual pellet (RBCs) was washed 3 times with PBS (pH 7.4, 0.1 M), and the resultant pellet was resuspended in PBS in a 1:10 ratio. Subsequently, 0.9 mL of the RBC suspension was incubated with 0.1 mL of peptides at various concentrations, a negative control (100 μL PBS + 900 μL RBC suspension), and a positive control (100 μL of 0.5% Triton-X-100 + 900 μL of RBC suspension), and incubated at 37 °C for 24 h. Post incubation, all tubes were centrifuged at 3000 rpm for 10 min. 0.1 mL of the supernatant was then transferred to 96-well plates, and the absorbance of the supernatant was read at 540 nm. […] The corrected values were calculated as Acontrol=Apos−Aneg and Asample=Atest−Aneg where Apos , Aneg and Atest are the absorbance values of the positive control, negative control, and peptide-treated sample (given concentration), respectively.

In the next series the target is yeast α-glucosidase. The experiment in a line: α-glucosidase inhibition assay. In kind it is biochemical, Saccharomyces cerevisiae. The settings on record: for IC50: read-out: α-Glucosidase Inhibition IC50 (value in bracket) (converted). The method, then: The α-glucosidase inhibition assay was performed following the method described by Huligere et al.. […] In this assay, one unit of activity was defined as the amount of enzyme required to release one µmol of p-nitrophenol from pNPG per minute under the specified experimental conditions. […] The reaction was maintained at 37 °C for an additional 20 min. Enzyme activity was determined by measuring the absorbance of liberated p-nitrophenol at 405 nm using a microplate reader (Spectramax i3, Molecular Devices, LLC, San Jose, CA, USA). […] IC50 values were determined by relating the percentage inhibition of each sample to its concentration.

The test system of another series is α-glucosidase. The experiment in a line: enzyme inhibition kinetics (Lineweaver-Burk), α-glucosidase. In kind it is biochemical, Saccharomyces cerevisiae. Set-up: Vmax: unit not given here. From the text:
Enzyme inhibition by coconut milk peptide 2 was further characterised for α-glucosidase, α-amylase and aldose reductase by steady-state kinetic analysis. […] In this context, v denotes the initial rate of product formation, whereas [S] denotes the concentration of the chromogenic or natural substrate used in each assay. Michaelis explained how v depends on [S] for each condition, as described by the Michaelis–Menten equation (Equation (2)):(2) v=VmaxS/Km+S Lineweaver–Burk double-reciprocal plots (Equation (3)) were then constructed by plotting 1/v versus 1/[S]:(3) 1/v=Km/Vmax·1/S+1/Vmax Michaelis–Menten parameters (Km and Vmax) and apparent inhibition constants (Ki) were obtained from these Lineweaver–Burk plots.

As to H-ADVFNPR-OH [Peptide 2, ADVFNPR], the IC50 in series [1] (mean ± SD, read-out: α-Amylase Inhibition IC50 (converted)) was 103 µM; in series [1] (read-out: α-Amylase Inhibition IC50 (value in bracket) (converted)) it was 103 µM; at yeast α-glucosidase (listed as peptide 2), 40.1 µM; at yeast α-glucosidase, 40.1 µM. For the same substance, the “ABTS Radical Scavenging Assay EC50” value in series [2] worked out at 17.89 ± 0.20 µg/mL. Further, the EC50 in series [2] (read-out: ABTS Radical Scavenging Assay EC50 (value in bracket) (converted)) is 21.9 µM. The “Hemolytic Assay (HC50)” value in the series on human erythrocytes is 231.53 ± 0.14 µg/mL. The “Hemolytic Assay (HC50) (value in bracket)” value in the series on human erythrocytes (red cells of human, 24 h) is given as 283.08 µM. Also, at yeast α-glucosidase (mean ± SD), the “α-Glucosidase Inhibition IC50” value is 32.82 ± 0.17 µg/mL. Further, the figures for the Vmax with α-glucosidase (IC20—13.13 µg), with α-glucosidase (IC40—26.26 µg) and in the series with α-glucosidase (IC60—39.39 µg) were 14.87, 14.68 and 14.50, respectively. In addition, the Mode of inhibition result in the series on α-glucosidase (from Lineweaver–Burk plot) is “Competitive”. The “Ki (apparent inhibition constant)” value at α-glucosidase (mean ± SE) was 0.95 ± 0.09 µg. For the same substance, in the series on α-glucosidase (over IC20–IC60), the “Vmax (essentially constant)” value is about 15 µM/min.

Source of the values: article PMC12785583, “Coconut Milk-Derived Bioactive Peptides as Multifunctional Agents Against Hyperglycemia, Oxidative Stress, and Glycation: An Integrated Experimental and Computational Study” (International Journal of Molecular Sciences, 2025).
